Test results from patent publication US20260217701A1, “SELECTIVE BET INHIBITORS AND USES THEREOF” (Tay Therapeutics Limited, priority 2022, published 2026).
Marks after values point to notes of the source that are not given here.

What was measured:
[1] = test system: gastrointestinal mucosa / goblet cells; assay: Gastrointestinal histopathology (Dog PK Study #4); assay type: in vivo; conditions: healthy beagle dogs; 10 mg/kg; Day 15
Procedure: Oral pan-BD BET inhibitors are known to negatively impact gastrointestinal mucosa through goblet cell toxicity, leading to related gastrointestinal adverse events in the clinic (Faivre et al., Nature, 578:306-310 (2020)). Therefore, the impact of Compound A on gastrointestinal toxicity and the mucosa was assessed in healthy beagle dogs as part of Dog PK Study #4, outlined in Experimental Method B.
Following completion of Dog PK study #4 on Day 15, animals were euthanized, and the large and small intestines were collected and fixed in 10% neutral buffered formalin. The tissues were then removed from the fixative, processed, embedded in paraffin, sectioned, and stained with hematoxylin and eosin, prior to microscopic examination.

EAE study: body weight = assay type: in vivo, C57BI/6 mice; conditions: for Mean Body Weight Change (% of Day −1): mean end body weight
Procedure: Experimental Method H: EAE in animals treated with a BET inhibitor and vehicle. Animals were assigned to the groups outlined in Table 38.
Compound A may be formulated as illustrated in Experimental Method A (see Table 2E.). A 40 mg/mL stock solution of Compound A in DMSO was prepared and aliquots stored at −20° C. On each day of preparation an e.g., 0.75 mL aliquot of thawed stock was diluted with an equal volume of DMSO. The remaining vehicle components were added to provide the highest dose and then diluted with vehicle to provide lower doses. A 30 mg/mL stock solution of FTY720 in ethanol was prepared and stored at −20° C. Daily, the stock solution was diluted with room temperature water to a final dosing concentration of 0.6 mg/mL. Formulated Compound A, FTY720 and vehicle were each at room temperature for dosing.
Female C57BI/6 mice (9 weeks old) were acclimated for seven days prior to study initiation. On Day-1, animals were assigned to groups in a balanced manner to achieve similar average weights across the different groups. Chronic EAE was induced in female C57BI/6 mice following immunization with an emulsion of MOG35-55/CFA on Day 0, followed by an injection of pertussis toxin two hours after the initial immunization. On Day 1, a second injection of pertussis toxin was administered 24 hours after the initial immunization. Mice were injected subcutaneously at two sites on the back with the MOG35-55/CFA emulsion (Hooke Kit™ MOG35-55/CFA Emulsion PTX). The first injection site was located approximately 1 cm caudal of the neckline (upper back), and the second injection site was approximately 2 cm cranial of the base of the tail (lower back). The injection volume was 0.1 mL for each injection. The pertussis toxin was administered at the described times through intraperitoneal injection at a concentration of 85 ng/dose for both injections.
Body weight was measured three times a week (Monday, Wednesday, and Friday) starting on Day-1. Animals were scored daily for EAE starting on Day 7. In-between scores were assigned when the clinical signs fell between two below defined scores.

[2] = Compound A 1 mg/kg (Group 2), Day 0
[3] = Compound A 1 mg/kg (Group 2), Day 2
[4] = Compound A 1 mg/kg (Group 2), Day 5
[5] = Compound A 1 mg/kg (Group 2), Day 7
[6] = Compound A 1 mg/kg (Group 2), Day 9
[7] = Compound A 1 mg/kg (Group 2), Day 12
[8] = Compound A 1 mg/kg (Group 2), Day 14
[9] = Compound A 1 mg/kg (Group 2), Day 16
[10] = Compound A 1 mg/kg (Group 2), Day 19
[11] = Compound A 1 mg/kg (Group 2), Day 21
[12] = Compound A 1 mg/kg (Group 2), Day 23
[13] = Compound A 1 mg/kg (Group 2), Day 27
[14] = Compound A 1 mg/kg (Group 2), Day 28
[15] = Compound A 1 mg/kg (Group 2), Day −1
[16] = Compound A 3 mg/kg (Group 3), Day 0
[17] = Compound A 3 mg/kg (Group 3), Day 2
[18] = Compound A 3 mg/kg (Group 3), Day 5
[19] = Compound A 3 mg/kg (Group 3), Day 7
[20] = Compound A 3 mg/kg (Group 3), Day 9
[21] = Compound A 3 mg/kg (Group 3), Day 12
[22] = Compound A 3 mg/kg (Group 3), Day 14
[23] = Compound A 3 mg/kg (Group 3), Day 16
[24] = Compound A 3 mg/kg (Group 3), Day 19
[25] = Compound A 3 mg/kg (Group 3), Day 21
[26] = Compound A 3 mg/kg (Group 3), Day 23
[27] = Compound A 3 mg/kg (Group 3), Day 27
[28] = Compound A 3 mg/kg (Group 3), Day 28
[29] = Compound A 3 mg/kg (Group 3), Day −1
[30] = Compound A 10 mg/kg (Group 4), Day 0
[31] = Compound A 10 mg/kg (Group 4), Day 2
[32] = Compound A 10 mg/kg (Group 4), Day 5
[33] = Compound A 10 mg/kg (Group 4), Day 7
[34] = Compound A 10 mg/kg (Group 4), Day 9
[35] = Compound A 10 mg/kg (Group 4), Day 12
[36] = Compound A 10 mg/kg (Group 4), Day 14
[37] = Compound A 10 mg/kg (Group 4), Day 16
[38] = Compound A 10 mg/kg (Group 4), Day 19
[39] = Compound A 10 mg/kg (Group 4), Day 21
[40] = Compound A 10 mg/kg (Group 4), Day 23
[41] = Compound A 10 mg/kg (Group 4), Day 27
[42] = Compound A 10 mg/kg (Group 4), Day 28
[43] = Compound A 10 mg/kg (Group 4), Day −1

Cn1cc(-c2ccccc2)c(-c2cn(C)c(=O)c3[nH]c(-c4cnn(C(F)(F)F)c4)cc23)cc1=O [Compound A, 6-methyl-4-(1-methyl-2-oxo-5-phenyl-1,2-dihydropyridin-4-yl)-2-(1-(trifluoromethyl)-1H-pyrazol-4-yl)-1,6-dihydro-7H-pyrrolo[2,3-c]pyridin-7-one]
Effect on gastrointestinal villus morphology or goblet cell number [1]: no deleterious effect | Relative end weight (% of the mean Day-1 weight) (EAE study: body weight; 1 mg/kg): 100.7% | Relative end weight (% of the mean Day-1 weight) (EAE study: body weight; 3 mg/kg): 103% | Relative end weight (% of the mean Day-1 weight) (EAE study: body weight; 10 mg/kg): 106% | Mean Body Weight (EAE study: body weight; [2]): 20.3 g | Mean Body Weight (% of Day −1) (EAE study: body weight; [2]): 100.7 % of Day −1 | Mean Body Weight (EAE study: body weight; [3]): 19.8 g | Mean Body Weight (% of Day −1) (EAE study: body weight; [3]): 98.4 % of Day −1 | Mean Body Weight (EAE study: body weight; [4]): 20.0 g | Mean Body Weight (% of Day −1) (EAE study: body weight; [4]): 99.0 % of Day −1 | Mean Body Weight (EAE study: body weight; [5]): 20.1 g | Mean Body Weight (% of Day −1) (EAE study: body weight; [5]): 99.8 % of Day −1 | Mean Body Weight (EAE study: body weight; [6]): 21.4 g | Mean Body Weight (% of Day −1) (EAE study: body weight; [6]): 105.3 % of Day −1 | Mean Body Weight (EAE study: body weight; [7]): 20.7 g | Mean Body Weight (% of Day −1) (EAE study: body weight; [7]): 102.1 % of Day −1 | Mean Body Weight (EAE study: body weight; [8]): 19.9 g | Mean Body Weight (% of Day −1) (EAE study: body weight; [8]): 98.4 % of Day −1 | Mean Body Weight (EAE study: body weight; [9]): 19.4 g | Mean Body Weight (% of Day −1) (EAE study: body weight; [9]): 95.7 % of Day −1 | Mean Body Weight (EAE study: body weight; [10]): 19.6 g | Mean Body Weight (% of Day −1) (EAE study: body weight; [10]): 96.8 % of Day −1 | Mean Body Weight (EAE study: body weight; [11]): 20.3 g | Mean Body Weight (% of Day −1) (EAE study: body weight; [11]): 99.9 % of Day −1 | Mean Body Weight (EAE study: body weight; [12]): 20.7 g | Mean Body Weight (% of Day −1) (EAE study: body weight; [12]): 102.0 % of Day −1 | Mean Body Weight (EAE study: body weight; [13]): 20.4 g | Mean Body Weight (% of Day −1) (EAE study: body weight; [13]): 100.4 % of Day −1 | Mean Body Weight (EAE study: body weight; [14]): 20.4 g | Mean Body Weight (% of Day −1) (EAE study: body weight; [14]): 100.7 % of Day −1 | Mean Body Weight (EAE study: body weight; [15]): 20.1 g | Mean Body Weight (% of Day −1) (EAE study: body weight; [15]): 100.0 % of Day −1 | Mean Body Weight Change (% of Day −1) (EAE study: body weight; Compound A 1 mg/kg): 100.7* % of Day −1 | Mean Body Weight (EAE study: body weight; [16]): 20.3 g | Mean Body Weight (% of Day −1) (EAE study: body weight; [16]): 100.6 % of Day −1 | Mean Body Weight (EAE study: body weight; [17]): 19.5 g | Mean Body Weight (% of Day −1) (EAE study: body weight; [17]): 96.7 % of Day −1 | Mean Body Weight (EAE study: body weight; [18]): 19.6 g | Mean Body Weight (% of Day −1) (EAE study: body weight; [18]): 97.2 % of Day −1 | Mean Body Weight (EAE study: body weight; [19]): 20.2 g | Mean Body Weight (% of Day −1) (EAE study: body weight; [19]): 100.0 % of Day −1 | Mean Body Weight (EAE study: body weight; [20]): 20.5 g | Mean Body Weight (% of Day −1) (EAE study: body weight; [20]): 101.6 % of Day −1 | Mean Body Weight (EAE study: body weight; [21]): 20.6 g | Mean Body Weight (% of Day −1) (EAE study: body weight; [21]): 102.1 % of Day −1 | Mean Body Weight (EAE study: body weight; [22]): 20.0 g | Mean Body Weight (% of Day −1) (EAE study: body weight; [22]): 99.5 % of Day −1 | Mean Body Weight (EAE study: body weight; [23]): 19.5 g | Mean Body Weight (% of Day −1) (EAE study: body weight; [23]): 96.9 % of Day −1 | Mean Body Weight (EAE study: body weight; [24]): 19.5 g | Mean Body Weight (% of Day −1) (EAE study: body weight; [24]): 97.0 % of Day −1 | Mean Body Weight (EAE study: body weight; [25]): 20.3 g | Mean Body Weight (% of Day −1) (EAE study: body weight; [25]): 101.5 % of Day −1 | Mean Body Weight (EAE study: body weight; [26]): 20.8 g | Mean Body Weight (% of Day −1) (EAE study: body weight; [26]): 103.9 % of Day −1 | Mean Body Weight (EAE study: body weight; [27]): 20.4 g | Mean Body Weight (% of Day −1) (EAE study: body weight; [27]): 101.8 % of Day −1 | Mean Body Weight (EAE study: body weight; [28]): 20.6 g | Mean Body Weight (% of Day −1) (EAE study: body weight; [28]): 103.0 % of Day −1 | Mean Body Weight (EAE study: body weight; [29]): 20.2 g | Mean Body Weight (% of Day −1) (EAE study: body weight; [29]): 100.0 % of Day −1 | Mean Body Weight Change (% of Day −1) (EAE study: body weight; Compound A 3 mg/kg): 103.0*** % of Day −1 | Mean Body Weight (EAE study: body weight; [30]): 20.5 g | Mean Body Weight (% of Day −1) (EAE study: body weight; [30]): 101.1 % of Day −1 | Mean Body Weight (EAE study: body weight; [31]): 19.8 g | Mean Body Weight (% of Day −1) (EAE study: body weight; [31]): 97.9 % of Day −1 | Mean Body Weight (EAE study: body weight; [32]): 20.0 g | Mean Body Weight (% of Day −1) (EAE study: body weight; [32]): 98.9 % of Day −1 | Mean Body Weight (EAE study: body weight; [33]): 20.4 g | Mean Body Weight (% of Day −1) (EAE study: body weight; [33]): 101.0 % of Day −1 | Mean Body Weight (EAE study: body weight; [34]): 20.6 g | Mean Body Weight (% of Day −1) (EAE study: body weight; [34]): 101.9 % of Day −1 | Mean Body Weight (EAE study: body weight; [35]): 20.2 g | Mean Body Weight (% of Day −1) (EAE study: body weight; [35]): 99.9 % of Day −1 | Mean Body Weight (EAE study: body weight; [36]): 19.6 g | Mean Body Weight (% of Day −1) (EAE study: body weight; [36]): 97.2 % of Day −1 | Mean Body Weight (EAE study: body weight; [37]): 19.1 g | Mean Body Weight (% of Day −1) (EAE study: body weight; [37]): 94.7 % of Day −1 | Mean Body Weight (EAE study: body weight; [38]): 20.0 g | Mean Body Weight (% of Day −1) (EAE study: body weight; [38]): 99.1 % of Day −1 | Mean Body Weight (EAE study: body weight; [39]): 20.7 g | Mean Body Weight (% of Day −1) (EAE study: body weight; [39]): 102.3 % of Day −1 | Mean Body Weight (EAE study: body weight; [40]): 21.1 g | Mean Body Weight (% of Day −1) (EAE study: body weight; [40]): 104.2 % of Day −1 | Mean Body Weight (EAE study: body weight; [41]): 21.0 g | Mean Body Weight (% of Day −1) (EAE study: body weight; [41]): 104.0 % of Day −1 | Mean Body Weight (EAE study: body weight; [42]): 21.4 g | Mean Body Weight (% of Day −1) (EAE study: body weight; [42]): 106.0 % of Day −1 | Mean Body Weight (EAE study: body weight; [43]): 20.2 g | Mean Body Weight (% of Day −1) (EAE study: body weight; [43]): 100.0 % of Day −1 | Mean Body Weight Change (% of Day −1) (EAE study: body weight; Compound A 10 mg/kg): 106.0*** % of Day −1
